# Test results as given in PMC5053523, “In Vitro Antibacterial Activity of Rhodanine Derivatives against Pathogenic Clinical Isolates” (PLoS ONE, 2016).
# Read-outs that look alike come from different tables or passages of the source.
# Key:
# Format in all cases: cell-based
# Salmonella Typhimurium [1] = assay: MIC with/without PMBN, Salmonella Typhimurium
# Outline: (§1)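 Rhodanines and control antibiotics are tested for MIC against Gram-negative bacteria while a sub-inhibitory level of colistin or PMBN is present. A strain of E. coli lacking the AcrAB efflux pump (SM1411ΔacrAB) serves as an additional test organism.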
# Acinetobacter baumannii [2] = assay: MIC with/without PMBN, Acinetobacter baumannii
# Outline: as §1
# Pseudomonas aeruginosa = assay: MIC with/without sub-MIC colistin, Pseudomonas aeruginosa
# Outline: as §1
# Bacillus anthracis = assay: microbe, parasite or virus in culture
# [3] = tested on: Vancomycin Resistant Staphylococcus aureus (VRSA); assay: Broth microdilution MIC/MBC, VRSA; conditions: for MBC / MIC: VRSA
# Escherichia coli O157:H7 [4] = assay: MIC with/without sub-MIC colistin, Escherichia coli O157:H7
# Outline: as §1
# [5] = tested on: vancomycin resistant enterococci (VRE); assay: Broth microdilution MIC50/MIC90, VRE panel; conditions: Enterococcus, 10 VRE strains
# Acinetobacter baumannii [6] = assay: Broth microdilution MIC, Acinetobacter baumannii
# Salmonella Typhimurium [7] = assay: MIC with/without sub-MIC colistin, Salmonella Typhimurium
# Outline: as §1
# B. licheniformis = assay: Broth microdilution MIC/MBC, B. licheniformis; conditions: Bacillus licheniformis; for MBC: read-out: MBC; for MIC: read-out: MIC
# Escherichia coli Δ acrAB = assay: MIC against E. coli 1411 and AcrAB efflux pump deficient E. coli SM1411Δ acrAB
# Outline: as §1
# Mycobacterium smegmatis = assay: Broth microdilution MIC/MBC, Mycobacterium smegmatis; conditions: Mycolicibacterium smegmatis, ATCC14468, M. Smegmatis ATCC 14468
# Escherichia coli O157:H7 [8] = assay: MIC with/without PMBN, Escherichia coli O157:H7
# Outline: as §1
# Klebsiella pneumoniae = assay: MIC with/without sub-MIC colistin, Klebsiella pneumoniae
# Outline: as §1
# B. cereus = assay: Broth microdilution MIC/MBC, B. cereus; conditions: Bacillus cereus; for MBC: read-out: MBC; for MIC: read-out: MIC
# Text: The broth microdilution technique was used, followed by subculturing on agar plates that were rhodanine—free.
# [9] = Salmonella enterica, ATCC 700720 / TYPHIMURIUM
# [10] = NCIB9375, B. licheniformis Gibson 46 (NCIB 9375) NR-2494
# [11] = NRS712, B. licheniformis NRS 712 NR-2499
# [12] = NRS201, B. cereus NRS 201 NR-2488
smiles,measurement,setting,value
O=C(O)[C@@H](Cc1ccccc1)N1C(=O)/C(=C/c2cccc(Cc3ccccc3)c2)SC1=S [Rh 7],MIC,"Salmonella Typhimurium [1]; Salmonella Typhimurium ATCC 700720, PMBN (+) 4 μg/mL, read-out: MIC",>128 µM
same,MIC,Salmonella Typhimurium [1]; [9],> 128 µM
same,MIC,"Acinetobacter baumannii [2]; Acinetobacter baumannii ATCC BAA747, PMBN (+) 4 μg/mL, read-out: MIC",>64 µM
same,MIC,"Acinetobacter baumannii [2]; Acinetobacter baumannii ATCC BAA19606, PMBN (+) 4 μg/mL, read-out: MIC",>64 µM
same,MIC,"Acinetobacter baumannii [2]; Acinetobacter baumannii, ATCCBAA747",> 128 µM
same,MIC,"Acinetobacter baumannii [2]; Acinetobacter baumannii, ATCCBAA19606",> 128 µM
same,MIC,"Pseudomonas aeruginosa; Pseudomonas aeruginosa ATCC 921, colistin (+) […], read-out: MIC",>64 µM
same,MIC,"Pseudomonas aeruginosa; Pseudomonas aeruginosa, ATCC921",> 128 µM
same,MBC,Bacillus anthracis; Bacillus anthracis AMES35,2 µM
same,MIC,Bacillus anthracis; Bacillus anthracis AMES35,2 µM
same,MBC,Bacillus anthracis; Bacillus anthracis UM23,2 µM
same,MIC,Bacillus anthracis; Bacillus anthracis UM23,2 µM
same,MBC,Bacillus anthracis; Bacillus anthracis Weybridge,2 µM
same,MIC,Bacillus anthracis; Bacillus anthracis Weybridge,2 µM
same,MIC50,"[3]; 15 VRSA strains, read-out: MIC 50",8 µM
same,MIC90,"[3]; 15 VRSA strains, read-out: MIC 90",16 µM
same,MBC,"[3]; VRSA 1, read-out: MBC",32 µM
same,MIC,"[3]; VRSA 1, read-out: MIC",16 µM
same,MBC,"[3]; VRSA 2, read-out: MBC",8 µM
same,MIC,"[3]; VRSA 2, read-out: MIC",8 µM
same,MBC,"[3]; VRSA 3a, read-out: MBC",8 µM
same,MIC,"[3]; VRSA 3a, read-out: MIC",8 µM
same,MBC,"[3]; VRSA 3b, read-out: MBC",32 µM
same,MIC,"[3]; VRSA 3b, read-out: MIC",8 µM
same,MBC,"[3]; VRSA 4, read-out: MBC",16 µM
same,MIC,"[3]; VRSA 4, read-out: MIC",8 µM
same,MBC,"[3]; VRSA 5, read-out: MBC",8 µM
same,MIC,"[3]; VRSA 5, read-out: MIC",8 µM
same,MBC,"[3]; VRSA 6, read-out: MBC",16 µM
same,MIC,"[3]; VRSA 6, read-out: MIC",8 µM
same,MBC,"[3]; VRSA 7, read-out: MBC",16 µM
same,MIC,"[3]; VRSA 7, read-out: MIC",8 µM
same,MBC,"[3]; VRSA 8, read-out: MBC",16 µM
same,MIC,"[3]; VRSA 8, read-out: MIC",8 µM
same,MBC,"[3]; VRSA 9, read-out: MBC",16 µM
same,MIC,"[3]; VRSA 9, read-out: MIC",16 µM
same,MBC,"[3]; VRSA 10, read-out: MBC",16 µM
same,MIC,"[3]; VRSA 10, read-out: MIC",8 µM
same,MBC,"[3]; VRSA 11a, read-out: MBC",16 µM
same,MIC,"[3]; VRSA 11a, read-out: MIC",8 µM
same,MBC,"[3]; VRSA 11b, read-out: MBC",32 µM
same,MIC,"[3]; VRSA 11b, read-out: MIC",8 µM
same,MBC,"[3]; VRSA 12, read-out: MBC",16 µM
same,MIC,"[3]; VRSA 12, read-out: MIC",8 µM
same,MBC,"[3]; VRSA 13, read-out: MBC",32 µM
same,MIC,"[3]; VRSA 13, read-out: MIC",8 µM
same,MIC,"Escherichia coli O157:H7 [4]; Escherichia coli O157:H7 ATCC 35150, colistin (+) […], read-out: MIC",>64 µM
same,MIC,"Escherichia coli O157:H7 [4]; Escherichia coli O157:H7 ATCC 700728, colistin (+) […], read-out: MIC",>64 µM
same,MIC,"Escherichia coli O157:H7 [4]; Escherichia coli, ATCC35150",> 128 µM
same,MIC,"Escherichia coli O157:H7 [4]; Escherichia coli, ATCC700728",> 128 µM
same,MIC90,"[5]; VRE, read-out: MIC 90",16 µM
same,MIC50,[5]; read-out: MIC 50,16 µM
same,MIC,Acinetobacter baumannii [6]; ATCC13345,> 128 µM
same,MIC,Acinetobacter baumannii [6]; ATCC17786,> 128 µM
same,MIC,"Salmonella Typhimurium [7]; Salmonella Typhimurium ATCC 700720, colistin (+) […], read-out: MIC",>64 µM
same,MIC,Salmonella Typhimurium [7]; [9],> 128 µM
same,MBC,B. licheniformis; [10],8 µM
same,MIC,B. licheniformis; [10],8 µM
same,MBC,B. licheniformis; [11],8 µM
same,MIC,B. licheniformis; [11],8 µM
same,MIC,Escherichia coli Δ acrAB; E.coli 1411,> 64 µM
same,MIC,"Escherichia coli Δ acrAB; E.coli 1411 SM (Δ acrAB, AcrAB efflux pump deficient)",> 64 µM
same,MBC,Mycobacterium smegmatis; read-out: MBC,16 µM
same,MIC,Mycobacterium smegmatis; read-out: MIC,16 µM
same,MIC,"Escherichia coli O157:H7 [8]; Escherichia coli O157:H7 ATCC 35150, PMBN (+) 4 μg/mL, read-out: MIC",8 µM
same,MIC,"Escherichia coli O157:H7 [8]; Escherichia coli O157:H7 ATCC 700728, PMBN (+) 4 μg/mL, read-out: MIC",>64 µM
same,MIC,"Escherichia coli O157:H7 [8]; Escherichia coli, ATCC35150",> 256 µM
same,MIC,"Escherichia coli O157:H7 [8]; Escherichia coli, ATCC700728",> 128 µM
same,MIC,"Klebsiella pneumoniae; Klebsiella pneumoniae ATCC BAA 2146, colistin (+) […]",>64 µM
same,MIC,"Klebsiella pneumoniae; Klebsiella pneumoniae, BAA2146",> 128 µM
same,MBC,B. cereus; B. cereus BAG1O-2 NR-28582,4 µM
same,MIC,B. cereus; B. cereus BAG1O-2 NR-28582,4 µM
same,MBC,B. cereus; B. cereus BAG1X1-1 NR-28575,4 µM
same,MIC,B. cereus; B. cereus BAG1X1-1 NR-28575,2 µM
same,MBC,B. cereus; B. cereus BAG1X2-1 NR-28578,4 µM
same,MIC,B. cereus; B. cereus BAG1X2-1 NR-28578,4 µM
same,MBC,B. cereus; B. cereus G9241 NR-9564,8 µM
same,MIC,B. cereus; B. cereus G9241 NR-9564,8 µM
same,MBC,B. cereus; B. cereus VD014 NR-22141,4 µM
same,MIC,B. cereus; B. cereus VD014 NR-22141,4 µM
same,MBC,B. cereus; B. cereus VD115 NR-22148,4 µM
same,MIC,B. cereus; B. cereus VD115 NR-22148,4 µM
same,MBC,B. cereus; B. cereus VD148 NR-22150,4 µM
same,MIC,B. cereus; B. cereus VD148 NR-22150,4 µM
same,MBC,B. cereus; [12],4 µM
same,MIC,B. cereus; [12],4 µM
